Some test systems named below: A549 NSCLC; CCRF-CEM leukemia; DU-145 prostate; HOP-62 NSCLC; HOP-92 NSCLC; MOLT-4 leukemia; PC-3 prostate; RXF 393 renal; SK-OV-3 ovarian; SW-620 colon.
Holding throughout (assay): growth of human tumour cells (NCI), 48 h

SMILES strings stand for the structures.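 Briefly, cells in 96-well plates were exposed to five compound concentrations for 48 h, and endpoints were estimated by linear interpolation. GI50 is the concentration that inhibits growth by half. TGI marks complete inhibition of growth.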

With `CC/C=C\C[C@H](O)C/C=C1/C(=O)C=C[C@@H]1C/C=C\CCCC(=O)NC`, the GI50 in the assay with A549 NSCLC is 2.55 µM; in the assay on CCRF-CEM leukemia, 1.47 µM; with DU-145 prostate it was 2.73 µM; in the assay on HOP-62 NSCLC, 2.3 µM; with HOP-92 NSCLC it was 3.3 µM; in the assay on MOLT-4 leukemia it was 2.4 µM. For the same molecule, the GI50 with PC-3 prostate is 1.95 µM; with RXF 393 renal it was 1.67 µM; in the assay with SK-OV-3 ovarian, 2.9 µM; in the assay with SW-620 colon, 1.28 µM. Moreover, the TGI came to 6.81 µM with A549 NSCLC; 8.13 µM in the assay on CCRF-CEM leukemia; 12.7 µM with DU-145 prostate; 5.33 µM in the assay on HOP-62 NSCLC; 6.66 µM in the assay with HOP-92 NSCLC; 11.3 µM in the assay with MOLT-4 leukemia. The TGI is 4.79 µM with PC-3 prostate, 3.17 µM in the assay with RXF 393 renal, 8.54 µM in the assay with SK-OV-3 ovarian and 4.63 µM in the assay on SW-620 colon.

`FC(F)(F)c1[nH]ncc1-c1nc2ccc3[nH]ncc3c2c2c1CCCC2`: the GI50 was 1.77 µM in the assay with A549 NSCLC; 2.15 µM with CCRF-CEM leukemia; 1.58 µM with DU-145 prostate; 1.17 µM in the assay with HOP-62 NSCLC; 1.21 µM in the assay on HOP-92 NSCLC; 1.29 µM with MOLT-4 leukemia. Besides, the GI50 with PC-3 prostate was 2.08 µM; with RXF 393 renal, 1.13 µM; in the assay with SK-OV-3 ovarian it was 1.79 µM; with SW-620 colon, 1.75 µM. Further, the TGI was 8.45 µM with A549 NSCLC; 10.7 µM with CCRF-CEM leukemia; 10.9 µM in the assay on DU-145 prostate; 6.79 µM with HOP-62 NSCLC; 3.5 µM in the assay with HOP-92 NSCLC; 5.29 µM with MOLT-4 leukemia. Also, the TGI in the assay on PC-3 prostate stood at 8.73 µM; in the assay with RXF 393 renal, 2.35 µM; in the assay on SK-OV-3 ovarian, 5.83 µM; in the assay on SW-620 colon it was 11 µM.

`CNCCCn1c2c(c3ccc(F)cc3c1=O)C(=O)c1cc(OC)cnc1-2`: the GI50 in the assay on A549 NSCLC was 0.105 µM; in the assay with CCRF-CEM leukemia, 0.255 µM; in the assay on DU-145 prostate, 0.202 µM; in the assay on HOP-62 NSCLC it was 0.142 µM; in the assay with HOP-92 NSCLC, 0.371 µM; with MOLT-4 leukemia, 0.0379 µM. Also, the GI50 in the assay on PC-3 prostate is 0.37 µM; with RXF 393 renal, 0.316 µM; in the assay on SK-OV-3 ovarian it was 0.228 µM; in the assay on SW-620 colon, 0.184 µM. Besides, the TGI in the assay with A549 NSCLC is 0.288 µM; in the assay with CCRF-CEM leukemia it was 10.6 µM; with DU-145 prostate, 1.12 µM; in the assay with HOP-62 NSCLC it was 0.42 µM; with HOP-92 NSCLC, 3.15 µM; in the assay with MOLT-4 leukemia, 0.318 µM. For the same molecule, the TGI in the assay on PC-3 prostate came out at 8.1 µM; in the assay with RXF 393 renal, 1.38 µM; with SK-OV-3 ovarian, 0.674 µM; with SW-620 colon it was 2.03 µM.

As for `CCCCCSC1C2C(=O)C(Br)=CC13CCNc1c(O)c4c5c(c13)=[N+]2CCC=5C=N4` (stereo not given), the GI50 in the assay on A549 NSCLC was 2.88 µM; with CCRF-CEM leukemia, 1.01 µM; in the assay with DU-145 prostate, 1.74 µM; with HOP-62 NSCLC, 3.03 µM; with HOP-92 NSCLC, 3.02 µM; with MOLT-4 leukemia, 0.762 µM. Also, the GI50 is 2 µM with PC-3 prostate, 1.87 µM in the assay on RXF 393 renal, 3.22 µM in the assay on SK-OV-3 ovarian and 0.545 µM in the assay with SW-620 colon. The TGI in the assay on A549 NSCLC worked out at 5.8 µM; in the assay with CCRF-CEM leukemia it was 11.6 µM; in the assay with DU-145 prostate, 3.72 µM; in the assay with HOP-62 NSCLC it was 5.8 µM; in the assay on HOP-92 NSCLC, 6.2 µM; with MOLT-4 leukemia, 5.73 µM. The TGI is 7.45 µM with PC-3 prostate, 4.42 µM in the assay with RXF 393 renal, 6.43 µM in the assay with SK-OV-3 ovarian and 1.55 µM with SW-620 colon.

Regarding `CN(C)c1ccc(/C=N/NC(=O)c2cccc3ccccc23)c(Cl)c1`, the GI50 was 0.926 µM in the assay on A549 NSCLC; 0.581 µM in the assay on CCRF-CEM leukemia; 4.07 µM with DU-145 prostate; 4.18 µM in the assay on HOP-62 NSCLC; 0.372 µM with HOP-92 NSCLC; 2.31 µM in the assay with MOLT-4 leukemia. Further, the GI50 with PC-3 prostate is 2.24 µM; with RXF 393 renal, 1.31 µM; in the assay on SK-OV-3 ovarian, 1.67 µM; in the assay on SW-620 colon it was 0.578 µM. Further, the TGI in the assay with A549 NSCLC was > 100 µM; in the assay with CCRF-CEM leukemia, > 100 µM; in the assay on DU-145 prostate, > 100 µM; in the assay on HOP-62 NSCLC, 33.4 µM; with HOP-92 NSCLC, 19.6 µM; in the assay with MOLT-4 leukemia it was > 100 µM. For the same molecule, the TGI with PC-3 prostate is > 100 µM; in the assay with RXF 393 renal, 10.8 µM; in the assay with SK-OV-3 ovarian, 25.2 µM; in the assay on SW-620 colon, > 100 µM.

With `Nc1ncnc2nn(C3OC(CO)C(O)C3O)nc12` (stereo not given), the TGI is > 64 µM with A549 NSCLC; > 67 µM with CCRF-CEM leukemia; > 45.4 µM in the assay with DU-145 prostate; 46.5 µM in the assay with HOP-62 NSCLC; > 100 µM in the assay on HOP-92 NSCLC; > 66.2 µM in the assay with MOLT-4 leukemia. In addition, the TGI was > 67.6 µM in the assay on PC-3 prostate, > 23.1 µM in the assay with RXF 393 renal, 16.6 µM in the assay with SK-OV-3 ovarian and > 100 µM in the assay on SW-620 colon.

For the molecule `CC1(C)N=C(N)N=C(N)N1c1ccc(Cl)c(Cl)c1`, the GI50 is 0.152 µM with A549 NSCLC; 3.39 µM with CCRF-CEM leukemia; 0.523 µM with DU-145 prostate; 0.533 µM with HOP-62 NSCLC; 47.1 µM in the assay with HOP-92 NSCLC; 1.38 µM with MOLT-4 leukemia. For the same molecule, the GI50 is 0.157 µM in the assay with PC-3 prostate, 29.1 µM in the assay on RXF 393 renal, 0.83 µM in the assay on SK-OV-3 ovarian and 0.0966 µM with SW-620 colon. Besides, the TGI in the assay with A549 NSCLC is > 100 µM; in the assay on CCRF-CEM leukemia it was > 52.3 µM; in the assay on DU-145 prostate, > 100 µM; with HOP-62 NSCLC it was > 100 µM; in the assay with HOP-92 NSCLC it was > 100 µM; in the assay on MOLT-4 leukemia, > 100 µM. The TGI with PC-3 prostate, with RXF 393 renal, with SK-OV-3 ovarian and in the assay on SW-620 colon was > 100 µM throughout.

Consider `CNC(=O)c1cc2c(Oc3ccc(NC(=S)NC(=O)Cc4ccccc4)cc3F)ccnc2cc1OC`, for which the GI50 is > 48.6 µM with A549 NSCLC; > 29.9 µM in the assay on CCRF-CEM leukemia; > 31.4 µM in the assay on DU-145 prostate; 22.6 µM with HOP-62 NSCLC; 1.67 µM in the assay with HOP-92 NSCLC; 3.47 µM with MOLT-4 leukemia. Moreover, the GI50 in the assay on PC-3 prostate was 16.7 µM; with RXF 393 renal, 2.02 µM; in the assay on SK-OV-3 ovarian it was 5.24 µM; in the assay on SW-620 colon it was > 100 µM. Further, the TGI in the assay on A549 NSCLC, in the assay with CCRF-CEM leukemia, with DU-145 prostate, in the assay on HOP-62 NSCLC, in the assay with HOP-92 NSCLC and with MOLT-4 leukemia was > 100 µM throughout. The TGI was > 100 µM in the assay with PC-3 prostate, 6.55 µM with RXF 393 renal, > 100 µM in the assay with SK-OV-3 ovarian and > 100 µM with SW-620 colon.
